Experimental data: patent US12662491B2 (Redona Therapeutics, Inc., priority 2020, dated 2026)
pIC50: −log10 of the molar value.

The molecules below were run against T1, Zcchc11 enzyme (Homo sapiens, UniProt Q5TAX3) (assay: TUTase assay (Zcchc11 assay, Lin28a-dependent polyuridylation of pre-let-7)). Conditions: Lin28a-dependent Zcchc11 (Z11) TUTase activity; read-out: Potency Lin28a-dep Z11 IC50.
T1 construct: made in house; host or cells: HEK293 cells (Zcchc11); E. coli Rosetta II (LIN28A)
T1 sequence (Q5TAX3 212-1420): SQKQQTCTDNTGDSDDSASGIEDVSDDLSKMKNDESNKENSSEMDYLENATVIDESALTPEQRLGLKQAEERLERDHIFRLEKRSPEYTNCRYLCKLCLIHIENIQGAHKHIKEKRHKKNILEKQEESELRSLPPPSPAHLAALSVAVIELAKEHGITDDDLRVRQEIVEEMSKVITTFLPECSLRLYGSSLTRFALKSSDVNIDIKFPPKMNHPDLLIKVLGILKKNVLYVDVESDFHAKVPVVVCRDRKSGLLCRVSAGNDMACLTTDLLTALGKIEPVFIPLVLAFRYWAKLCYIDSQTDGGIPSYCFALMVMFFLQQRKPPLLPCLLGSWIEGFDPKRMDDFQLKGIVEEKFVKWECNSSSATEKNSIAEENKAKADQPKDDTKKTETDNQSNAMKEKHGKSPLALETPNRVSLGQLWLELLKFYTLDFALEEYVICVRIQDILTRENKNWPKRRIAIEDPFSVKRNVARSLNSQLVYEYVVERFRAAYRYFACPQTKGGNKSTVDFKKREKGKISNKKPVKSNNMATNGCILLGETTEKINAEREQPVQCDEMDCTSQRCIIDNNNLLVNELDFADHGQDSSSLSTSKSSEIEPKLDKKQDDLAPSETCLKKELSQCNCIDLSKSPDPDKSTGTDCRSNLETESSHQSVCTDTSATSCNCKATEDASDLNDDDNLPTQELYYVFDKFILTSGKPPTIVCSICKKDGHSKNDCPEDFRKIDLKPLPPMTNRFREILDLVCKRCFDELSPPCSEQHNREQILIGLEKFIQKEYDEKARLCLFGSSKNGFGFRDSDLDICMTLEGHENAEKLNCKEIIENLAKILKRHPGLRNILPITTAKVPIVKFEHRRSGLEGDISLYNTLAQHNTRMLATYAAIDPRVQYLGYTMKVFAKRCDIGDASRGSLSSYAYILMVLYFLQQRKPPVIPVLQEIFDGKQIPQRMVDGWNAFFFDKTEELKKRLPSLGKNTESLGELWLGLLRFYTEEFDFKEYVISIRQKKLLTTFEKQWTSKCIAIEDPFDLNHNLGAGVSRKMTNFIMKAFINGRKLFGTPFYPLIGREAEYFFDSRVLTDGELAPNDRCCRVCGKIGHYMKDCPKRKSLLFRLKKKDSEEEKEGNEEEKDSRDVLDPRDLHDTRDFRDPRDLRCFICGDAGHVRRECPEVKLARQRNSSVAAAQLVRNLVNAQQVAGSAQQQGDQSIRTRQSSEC
Format: biochemical
Outline: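 Human Zcchc11 residues 212-1420 (HEK293-expressed, MBP tag cleaved, C-terminal FLAG) at 0.2 nM, with 10 nM full-length human LIN28A and 2 nM 5′-fluorescein pre-let-7, preincubated with compound 30 min at room temperature. Reaction started with 5 uM UTP plus 4 nM 3′-rhodamine A20 quench probe; fluorescein loss read kinetically, IC50 from initial rates.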

| pIC50 | Compound |
| --- | --- |
| ≥ 6.00 | CN(C)C1CN(c2cnc(-n3cc(C(=O)O)c(=O)c4cc(C#N)c(N5CCC[C@@H]5COc5ncccc5Cl)nc43)cn2)C1 [Compound 280, (R)-7-(2-(((3-chloropyridin-2-yl)oxy)methyl)pyrrolidin-1-yl)-6-cyano-1-(5-(3-(dimethyl-amino)azetidin-1-yl)pyrazin-2-yl)-4-oxo-1,4-dihydro-1,8-naphthyridine-3-carboxylic acid] |
| ≥ 6.00 | CN(C)C1CN(c2ccc(-n3cc(C(=O)O)c(=O)c4cc(Cl)c(N5CC(OC6CC6)C[C@@H]5COc5ncccc5Cl)cc43)cn2)C1 (stereo partly drawn) [Compound 275, 6-chloro-7-((2R)-2-(((3-chloropyridin-2-yl)oxy)methyl)-4-cycloprop-oxypyrrolidin-1-yl)-1-(6-(3-(dimethyl-amino)azetidin-1-yl)pyridin-3-yl)-4-oxo-1,4-dihydro-quinoline-3-carboxylic acid] |
| ≥ 6.00 | CN(C)C1CN(c2ccc(-n3cc(C(=O)O)c(=O)c4cc(C#N)c(N5CCC[C@@H]5COc5ncccc5F)cc43)cn2)C1 [Compound 169, (R)-6-cyano-1-(6-(3-(dimethyl-amino)azetidin-1-yl)pyridin-3-yl)-7-(2-(((3-fluoropyridin-2-yl)oxy)methyl)pyrrolidin-1-yl)-4-oxo-1,4-dihydro-quinoline-3-carboxylic acid] |
| ≥ 6.00 | CN(C)C1CN(c2ccc(-n3cc(C(=O)O)c(=O)c4cc(Cl)c(N5CC(c6cn[nH]c6)C[C@@H]5COc5ncccc5Cl)cc43)cn2)C1 (stereo partly drawn) [Compound 304, 6-chloro-7-((2R)-2-(((3-chloropyridin-2-yl)oxy)methyl)-4-(1H-pyrazol-4-yl)pyrrolidin-1-yl)-1-(6-(3-(dimethyl-amino)azetidin-1-yl)pyridin-3-yl)-4-oxo-1,4-dihydro-quinoline-3-carboxylic acid] |

More lines, now with the values behind:

| Compound | pIC50 |
| --- | --- |
| CC(=O)Nc1ccc(-n2cc(C(=O)O)c(=O)c3cc(F)c(N4CCC[C@@H]4COc4ccccn4)cc32)cc1 [Compound 159, (R)-1-(4-acetamido-phenyl)-6-fluoro-4-oxo-7-(2-((pyridin-2-yloxy)methyl)pyrrolidin-1-yl)-1,4-dihydro-quinoline-3-carboxylic acid] | ≥ 6.00 |
| Cc1ccc(F)c(OC[C@H]2C[C@H]3C[C@H]3N2c2cc3c(cc2F)c(=O)c(C(=O)O)cn3-c2ccc(N(C)C)nc2)n1 [Compound 344, 1-[6-(Dimethyl-amino)pyridin-3-yl]-6-fluoro-7-[(1R,3R,5R)-3-{[(3-fluoro-6-methylpyridin-2-yl)oxy]methyl}-2-azabicyclo [3.1.0]hexan-2-yl]-4-oxoquinoline-3-carboxylic acid] | ≥ 6.00 |
| COc1ccc(Cl)c(OC[C@H]2C[C@H]3C[C@H]3N2c2cc3c(cc2F)c(=O)c(C(=O)O)cn3-c2ccnc(N)c2)n1 [Compound 199, 1-(2-aminopyridin-4-yl)-7-((1R,3R,5R)-3-(((3-chloro-6-methoxy-pyridin-2-yl)oxy)methyl)-2-azabicyclo [3.1.0]hexan-2-yl)-6-fluoro-4-oxo-1,4-dihydro-quinoline-3-carboxylic acid] | ≥ 6.00 |
| O=C(O)c1cn(-c2ccc(F)c(F)c2)c2cc(N3CCC[C@@H]3COc3ccccn3)c(F)cc2c1=O [Compound 149, (R)-1-(3,4-difluorophenyl)-6-fluoro-4-oxo-7-(2-((pyridin-2-yloxy)methyl)pyrrolidin-1-yl)-1,4-dihydro-quinoline-3-carboxylic acid] | 5.00 to 6.00 |
| CC1CCN(c2cc3c(cc2Cl)c(=O)c(C(=O)O)cn3-c2ccc(N3CC(N(C)C)C3)nc2)C1COc1nc(N(C)C)ccc1Cl (centres unmarked) [Compound 332, 6-Chloro-7-[2-({[3-chloro-6-(dimethyl-amino)pyridin-2-yl]oxy}methyl)-3-methyl-pyrrolidin-1-yl]-1-{6-[3-(dimethyl-amino)azetidin-1-yl]pyridin-3-yl}-4-oxoquinoline-3-carboxylic acid] | ≥ 6.00 |
| O=C(O)c1cn(-c2cnccn2)c2cc(N3C(=O)CC[C@@H]3COc3ccccn3)c(Cl)cc2c1=O [Compound 286, (R)-6-chloro-4-oxo-7-(2-oxo-5-((pyridin-2-yloxy)methyl)pyrrolidin-1-yl)-1-(pyrazin-2-yl)-1,4-dihydro-quinoline-3-carboxylic acid] | < 4.30 |

Same assay, conditions: Lin28a-dependent Zcchc11 (Z11) TUTase assay; read-out: Potency Lin28a-dep Z11 IC50

| pIC50 | Compound |
| --- | --- |
| ≥ 6.00 | Cc1cc2c(=O)c(C(=O)O)cn(-c3ccc(N4CC(N(C)C)C4)nc3)c2cc1N1CCC[C@@H]1COc1ncccc1C [Example 545, (R)-1-(6-(3-(dimethylamino)azetidin-1-yl)pyridin-3-yl)-6-methyl-7-(2-(((3-methylpyridin-2-yl)oxy)methyl)pyrrolidin-1-yl)-4-oxo-1,4-dihydroquinoline-3-carboxylic acid] |
| ≥ 6.00 | COCCNc1cnc(-n2cc(C(=O)O)c(=O)c3cc(Cl)c(N4CCC[C@@H]4COc4ncccc4Cl)cc32)cn1 [Example 481, 6-chloro-7-[(2R)-2-{[(3-chloropyridin-2-yl)oxy]methyl}pyrrolidin-1-yl]-1-{5-[(2-methoxyethyl)amino]pyrazin-2-yl}-4-oxo-1,4-dihydroquinoline-3-carboxylic acid] |
| ≥ 6.00 | CN(C)C1CN(c2ccc(-n3cc(C(=O)O)c(=O)c4cc(Cl)c(N5CCC[C@@H]5COc5ncccc5F)cc43)cn2)C1 [Example 526, (R)-6-chloro-1-(6-(3-(dimethylamino)azetidin-1-yl)pyridin-3-yl)-7-(2-(((3-fluoropyridin-2-yl)oxy)methyl)pyrrolidin-1-yl)-4-oxo-1,4-dihydroquinoline-3-carboxylic acid] |
| ≥ 6.00 | CN(C)CCn1cc(-n2cc(C(=O)O)c(=O)c3cc(Cl)c(N4CCC[C@@H]4COc4ncccc4Cl)cc32)cn1 [Example 437, (R)-6-chloro-7-(2-(((3-chloropyridin-2-yl)oxy)methyl)pyrrolidin-1-yl)-1-(1-(2-(dimethylamino)ethyl)-1H-pyrazol-4-yl)-4-oxo-1,4-dihydroquinoline-3-carboxylic acid] |
| ≥ 6.00 | O=C(O)c1cn(-c2cnc(O)cn2)c2cc(N3CCC[C@@H]3COc3ncccc3Cl)c(Cl)cc2c1=O [Example 364, 6-Chloro-7-[(2R)-2-{[(3-chloropyridin-2-yl)oxy]methyl}pyrrolidin-1-yl]-1-(5-hydroxy-pyrazin-2-yl)-4-oxo-1,4-dihydroquinoline-3-carboxylic acid] |
| ≥ 6.00 | O=C(O)c1cn(-c2ccc(N3CCC3)nc2)c2cc(N3CCC[C@@H]3COc3ncccc3Cl)c(Br)cc2c1=O [Example 491, (R)-1-(6-(azetidin-1-yl)pyridin-3-yl)-6-bromo-7-(2-(((3-chloropyridin-2-yl)oxy)methyl)pyrrolidin-1-yl)-4-oxo-1,4-dihydroquinoline-3-carboxylic acid] |

The remaining lines, values behind:

| Compound | pIC50 |
| --- | --- |
| COc1cccc(-n2cc(C(=O)O)c(=O)c3cc(F)c(N4CCC[C@@H]4COc4ccccn4)cc32)c1 [Example 399, (R)-6-fluoro-1-(3-methoxyphenyl)-4-oxo-7-(2-((pyridin-2-yloxy)methyl)pyrrolidin-1-yl)-1,4-dihydroquinoline-3-carboxylic acid] | ≥ 6.00 |
| NC(=O)Cn1cc(C(=O)O)c(=O)c2cc(F)c(N3CCC[C@@H]3COc3ccccn3)cc21 [Example 574, (R)-1-(2-amino-2-oxoethyl)-6-fluoro-4-oxo-7-(2-((pyridin-2-yloxy)methyl)pyrrolidin-1-yl)-1,4-dihydroquinoline-3-carboxylic acid] | 5.00 to 6.00 |
| COCCN1CC2(CC(n3cc(C(=O)O)c(=O)c4cc(Cl)c(N5CCC[C@@H]5COc5ncccc5Cl)cc43)C2)C1 [Example 482, (R)-6-chloro-7-(2-(((3-chloropyridin-2-yl)oxy)methyl)pyrrolidin-1-yl)-1-(2-(2-methoxy-ethyl)-2-azaspiro[3.3]heptan-6-yl)-4-oxo-1,4-dihydroquinoline-3-carboxylic acid] | 5.00 to 6.00 |
| COCc1ccccc1-n1cc(C(=O)O)c(=O)c2cc(F)c(N3CCC[C@@H]3COc3ccccn3)cc21 [Example 407, (R)-6-fluoro-1-(2-(methoxymethyl)phenyl)-4-oxo-7-(2-((pyridin-2-yloxy)methyl)pyrrolidin-1-yl)-1,4-dihydroquinoline-3-carboxylic acid] | 5.00 to 6.00 |
